From a melting point compilation (Tetko et al.; mined from patent text by program, amines drawn as free bases though some values may be those of a salt)

melting point [°C]	Structure (SMILES)
184 to 188	CCc1nn2ccccc2c1NC(C)=O
108 to 110	CC(C)c1cccc(C(C)C)c1NC(=O)C(C)(C)CCCOc1ccc2c(c1)C=C(c1nccn1C)C(CCc1ccccc1)O2 (racemic)
141 to 145	CCCc1nc(C(C)(O)CC)c(C#N)n1Cc1ccc(-c2ccccc2-c2nnn[nH]2)cc1 (centres undefined)
156 to 157	Cc1c(C)c2c(c(C)c1NC(=O)CCCO)C(c1ccc(C(C)C)cc1)CO2 (centres undefined)
210 to 218	Cc1ccc(C2OCCn3ccc(=O)c(O)c32)cc1 (centres undefined)
160 to 162	CCN1C(=O)C(NC(=O)C(F)(F)F)CCc2c1ccc(Nc1ncc(Cl)c(N[C@@H]3CCCC[C@H]3NS(C)(=O)=O)n1)c2OC (some centres undefined)
88 to 92	COc1c(S(=O)(=O)Cl)ccc(Cl)c1C
202 to 204	NC(=O)NCc1cc2c(Oc3ccc(Cl)cc3)cncc2s1
306 to 307	CSc1nc(N)nc2c3nc(C)cc(C)c3nn12
224 to 225	O=C1NC(=O)c2ccccc2/C1=C/Nc1ccc(CCN2CCCC2)cc1
168 to 170	CCCCCCCCCCCc1nc(NC(=O)Nc2c(C(C)C)cccc2C(C)C)n[nH]1
263	NS(=O)(=O)c1cnc(-c2cn(-c3nc(-c4ccc(Cl)cc4)cc(C(F)(F)F)n3)cn2)s1
173 to 175	CCOC(=O)c1sc2nc(-c3ccccc3)cnc2c1N
72 to 79	CN1C(=O)CC[C@]2(C)c3ccc(-c4ccc(C(F)(F)F)cc4F)cc3CC[C@@H]12
165 to 169	O=C1CC2(CCCC2)CC(=O)N1CCCCN1CCN(C(c2ccc(F)cc2)c2ccc(F)cc2)CC1
219 to 221	COc1ccc(Nc2cc([N+](=O)[O-])ccc2C)c(C(=O)O)c1
142 to 145	CC(C)(C)OC(=O)N[C@@H](CCl)[C@H](O)CCl
55 to 57	COC(=O)c1cc(I)cc(C)c1OC
248 to 250	CCCn1c(=O)c2[nH]c(/C=C/c3cc(OC)c(OC)cc3Br)nc2n(CCC)c1=O
178 to 183	O=C(O)Cc1cccc(Oc2cccc(Cl)c2Cl)c1[N+](=O)[O-]
115	CC(c1ccc(O)cc1)C(CS)C(=O)NC(Cc1ccc(O)cc1)C(=O)O (centres undefined)
139 to 140	Cc1cc(C)cc(NC(=O)CN2CCN(c3ncccc3C#N)CC2)c1
64 to 65	Cc1ccc(C(O[Si](C)(C)C(C)(C)C)C(=O)N2CCOCC2)cc1 (centres undefined)
114 to 116	Cc1cccc2c1C=Cc1ccccc1C2O (centres undefined)

melting point [°C]	Structure (SMILES)
150 to 151	COc1ccccc1NC(=O)N1CCC(=O)C(C(c2ccccc2)c2ccccc2)C1 (centres undefined)
> 250	CC(C)NC(=O)c1cnn(C)c1C(=O)Nc1ccn2nc(-c3ccccc3)nc2c1
277	CC(C)(C)c1nc(-c2nnc(NC(=N)N)s2)nc(C(C)(C)C)c1O
236 to 237	Cc1cccc(C(=O)NC(Nc2c(Nc3cccnc3)c(=O)c2=O)C(C)(C)C)c1 (centres undefined)
83 to 84	CC1(c2ccccc2)SC(=S)N(Nc2ccccc2)C1=NO (centres undefined)
117 to 122	O=S(Cc1ccccn1)c1cnc2ccccc2n1 (centres undefined)
261 to 262	CN(C)c1nnc(Br)c(=O)[nH]1
278 to 284	COc1cccc2c1CN(c1c(F)cc3c(=O)c(C(=O)O)cn(-c4ccc(F)cc4)c3c1F)C2
165 to 166	CCCCCCOc1cc(C(=O)O)cc([N+](=O)[O-])c1C(=O)c1ccccc1
204	O=C(O)CS(=O)(=O)c1ccc2c(-c3ccccc3F)noc2c1Cl
197 to 199	Cn1cc(-c2cccc(C(F)(F)F)c2)c(=O)c(-c2ccccc2Br)c1
125 to 126	CC(=O)NC(=O)C(Cl)Cc1ccc(OCC(C)(C)c2ccccc2)cc1 (centres undefined)
162 to 164	CC(C)NCC(O)COc1cccc(-c2nc(C(F)(F)F)c[nH]2)c1 (centres undefined)
114	COc1ccc(Nc2nc(Cl)nc(OCC3CCCCC3)n2)cc1Cl
164 to 165	CCOc1cc([N+](=O)[O-])ccc1NC(C)=O
195 to 196	COc1ccccc1-c1ccc(C(=O)N2Cc3ccc(C(=O)NC(CO)c4ccccc4)n3Cc3ccccc32)cc1 (centres undefined)
204 to 205	Cc1cc(-c2nc3c(F)c(F)ccc3s2)ccc1N
165 to 173	CC(C)C[C@@H](CO)NC(=O)[C@@H](O)[C@@H](Cc1ccc(S(C)(=O)=O)cc1)NC(=O)OCc1ccccc1
148 to 150	COc1ccc(/C=C/S(=O)(=O)CS(=O)(=O)/C=C/c2ccc(O)c(OC)c2)cc1N
143 to 146	O=C(Cc1ccccn1)N1CCN(C(=O)Oc2ccc(Oc3ccc(C(F)(F)F)cn3)cc2)CC1
78 to 79	CC(C)=CCn1c(-c2c(F)cccc2F)nc2c(C)cccc21
183 to 184	CN1CCN(c2cccc3c2C[C@H](NC(=O)C2CCCCC2)CC3)CC1
244 to 246	CC1CCC(C(=O)Nc2ccc(-c3ncc(-c4ccc(NC(=O)C5CCCCCC5)cc4)[nH]3)cc2)CC1 (centres undefined)
210 to 212	CC(C)Nc1nc2ccccn2c(=O)c1-c1ccc(NC2CCN(C(=O)OC(C)(C)C)C2)cc1 (centres undefined)

melting point [°C]	Structure (SMILES)
230 to 231	CC(=O)Oc1ccc(-c2c(CBr)c3ccc(F)cc3oc2=O)c(OC(C)=O)c1
114 to 116	O=S(=O)(c1ccccc1)N1CCC(C(=NCc2ccc(F)cc2)c2ccc(F)cc2)CC1
200 to 202	Clc1ccc(-c2nc3n(c2Br)CCS3)c(Cl)c1
142 to 143	CC(=O)Nc1cc(N)c(Cl)cc1F
> 140	CC1NC(=O)NN=C1c1ccc(NC(=O)Nc2ccccc2)cc1 (centres undefined)
129 to 131	COC(=O)CCc1cc2cc(Cl)ccc2n1S(=O)(=O)c1ccc(F)cc1
234 to 238	CN1CCN(c2ccc(Nc3ncc4ccc(-c5ccc(S(C)(=O)=O)cc5)n4n3)cc2)CC1
163 to 164	COc1ccc(N(C(C)=O)C2=NN(c3ccc([N+](=O)[O-])cc3)C(=O)C2Br)cc1 (centres undefined)
131	C=CCC(C(O)=Nc1cc(Cl)cc(Cl)c1)C(C)C(=O)O (centres undefined)
68 to 69	CCc1c(C#N)oc2ccc(Br)cc12
109 to 112	O=S(c1ccc(-n2cnnn2)cc1)C(F)F (centres undefined)
195 to 198	O=S1CCN(c2nc(Cl)nc3c(Cl)ncnc23)CC1
190 to 193	CS(=O)(=O)c1ccc(C(=O)Nc2ccc(Cl)c(-c3ccc(C(=O)NO)cn3)c2)c(Cl)c1
285 to 287	Cn1nc2nc(C(C)(C)C)[nH]c(=O)c2c1N
145 to 146	Cc1oc2ccccc2c1C(=O)N(Cc1ccccc1)Cc1ccc2c(Br)c(OCC#N)ccc2c1
129 to 132	CC(=O)Oc1ccc2sc(S(N)(=O)=O)cc2c1
> 250	N#Cc1cc(-c2nc3cncnc3[nH]2)ccc1Oc1ccc(F)cc1
240	O=C(CCN1CCCCC1)Nc1ccc2c(c1)C(=O)c1cc(NC(=O)CCN3CCCCC3)ccc1C2=O
162 to 165	O=C(NCc1ccc(Cl)cc1)c1ccc2cccnc2c1O
156 to 158	CC(C)(C)CCNc1cccc(-c2ccnc3c(C(=O)c4cccs4)cnn23)c1
190 to 192	CCOC(=O)NNc1ccc(-c2ccc(Cl)cc2)nn1
55 to 56	CCc1scc(C(=O)OC)c1NC(=O)C(F)(F)F
108 to 110	[N-]=[N+]=NS(=O)(=O)c1ccc(N2CC(CO)OC2=O)cc1 (centres undefined)
184 to 185	Cn1ncc(N2CCCCC2)c(-c2ccccc2C=NO)c1=O

melting point [°C]	Structure (SMILES)
126 to 128	CSc1ccc(CN2CCC(=O)C(C(c3ccccc3)c3ccccc3)C2)cc1 (centres undefined)
308 to 310	O=C1CC(c2ccc(Cl)cc2Cl)Cc2[nH]c3ccc(Cl)cc3c(=O)c21 (centres undefined)
103 to 104	CCCCc1nc2cccc(C(=O)OC)c2n1Cc1ccc(-c2c(C#N)cnc3ccccc23)cc1
88 to 90	CCOC(=O)CN(C(=O)C(=O)N(CC(=O)OCC)S(=O)(=O)C(F)(F)F)S(=O)(=O)C(F)(F)F
118 to 120	Cc1cc(-c2cccs2)ccc1C(=O)c1cccc2c1Nc1ncccc1CN2
108 to 110	CC(C)(C)OC(=O)C1CCCN(CO)c2c1cc(OCc1ccccc1)c1ccccc21 (centres undefined)
256 to 257	O=C(O)Cc1sc(Nc2ccccc2)nc1-c1ccc(Cl)cc1
155 to 156	Nc1cc(N2CC(c3ccccc3)OC2=O)ccn1 (centres undefined)
99 to 101	O=P1(c2ccccc2)OCc2ccccc21 (centres undefined)
104 to 106	CCOC1=C(C)C(=O)C(C)(C)CC1
157 to 158	O=C1NCCSc2sccc21
112 to 114	COCC(NC(=O)OCc1ccccc1)C(=O)NCc1ccccc1 (centres undefined)
53 to 55	C(=C\c1ncno1)/c1ccccc1
103 to 105	COC(=O)Cc1c(C)n(-c2ccnc3ccccc23)c2ccc(OC)cc12
240	COc1cc(-c2ccc3ncc(NC(=O)Nc4ccccc4)nc3n2)ccc1O
114 to 115	CS(=O)(=O)c1cccc(-c2ccccc2N)c1
115 to 120	CC(=O)N1CCC(Oc2c(F)c(F)c(F)c(F)c2F)(c2ccccc2)CC1
80 to 81	C1CNCCNCCOCCNCCN1
138 to 140	CS(=O)(=O)N(CCc1ccccc1)CC(O)(Cn1cncn1)c1ccc(Cl)cc1Cl (centres undefined)
80 to 81	CC(C)(C)[Si](C)(C)Oc1cccc2[nH]ccc12
195 to 196	O=C1c2cccc(SCCCCCCO)c2C(=O)c2cccc(SCCCCCCO)c21

Structure (SMILES)	melting point [°C]
O=C(Nc1cccnc1)C(Cl)(Cl)Cl	149 to 151
NS(=O)(=O)c1cc(N(CCCl)CCCl)c([N+](=O)[O-])cc1[N+](=O)[O-]	153 to 154
CN(C)C(=O)Oc1ccc2c(c1)[nH]c(=O)c1c3ccc(OC(=O)N(C)C)cc3oc21	255 to 269
Cc1c(NC(=O)N2C[C@H](O[Si](C)(C)C(C)(C)C)C[C@H]2CO)ccc(C#N)c1Cl	169 to 171
CCCCCCc1cc2c(s1)-n1c(C)nnc1CN=C2c1ccc(C)cc1	74 to 76
COCC1CC2CCC13CN(CC1CC1)CCC31c3cccc(O)c3OC21 (centres undefined)	128 to 129
